# Assay results reported in PubChem BioAssay (NCI).
#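 The compound was tested at five concentrations on cells cultured in 96-well plates, with a 48-hour exposure period. GI50 is the concentration that inhibits growth by half. TGI: total growth inhibition.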
# Assays:
# Experiment in all cases: DTP human tumour cell line panel, 48 h
# MALME-3M melanoma = test system: MALME-3M melanoma
# NCI-H226 lung = test system: NCI-H226 lung
# COLO 205 colon = test system: COLO 205 colon
# SK-OV-3 ovarian = test system: SK-OV-3 ovarian
# UACC-257 melanoma = test system: UACC-257 melanoma
# PC-3 prostate = test system: PC-3 prostate
# IGROV1 ovarian = test system: IGROV1 ovarian
# SNB-19 CNS = test system: SNB-19 CNS
Structure (SMILES),GI50 (MALME-3M melanoma),TGI (MALME-3M melanoma),GI50 (NCI-H226 lung),TGI (NCI-H226 lung),GI50 (COLO 205 colon),TGI (COLO 205 colon),GI50 (SK-OV-3 ovarian),TGI (SK-OV-3 ovarian),GI50 (UACC-257 melanoma),TGI (UACC-257 melanoma),GI50 (PC-3 prostate),TGI (PC-3 prostate),GI50 (IGROV1 ovarian),TGI (IGROV1 ovarian),GI50 (SNB-19 CNS),TGI (SNB-19 CNS)
CNCCNc1nc2ccccc2c2c(=O)c3cc(OC)ccc3sc12,1.82 µM,3.31 µM,1.75 µM,3.61 µM,1.64 µM,3.34 µM,1.82 µM,3.97 µM,1.89 µM,3.75 µM,1.47 µM,2.94 µM,1.55 µM,3.04 µM,–,–
CCCCCCNC(=O)Oc1ccc(/C(=C(/C)Cc2ccc(OC)cc2)c2ccc(OCCN(C)C)cc2)cc1,4.49 µM,9.64 µM,6.18 µM,11.9 µM,4.71 µM,9.79 µM,4.99 µM,9.5 µM,6.42 µM,11.9 µM,1.66 µM,5.96 µM,4.62 µM,9.6 µM,5.6 µM,10.4 µM
Nc1ccc(C(=O)CC2(O)C(=O)Nc3c(Cl)cc(Cl)cc32)cc1 (stereo unspecified),–,> 100 µM,–,> 100 µM,–,> 100 µM,–,> 100 µM,–,> 100 µM,–,–,–,–,–,> 100 µM
COC(=O)[C@]1(C)CCC[C@@]2(C)[C@@H]3C[C@@H]4[C@H]5C[C@@]3(CC[C@@H]21)C[C@@]45C,–,37.3 µM,–,30.5 µM,–,45.8 µM,–,27.8 µM,–,28.8 µM,–,29.3 µM,–,36 µM,–,26.9 µM
Cn1cc(C2=C(c3cn(C)c4cc(N)ccc34)C(=O)NC2=O)c2ccccc21,11 µM,> 22.3 µM,3.59 µM,17.2 µM,1.63 µM,9.59 µM,2.25 µM,> 25 µM,5.89 µM,18.1 µM,2.92 µM,> 20.6 µM,6.05 µM,17.6 µM,5.45 µM,24.3 µM
COC(=O)c1ccc(CN2C(=O)C(Cl)=C(Nc3ccc(OC)c(Cl)c3)C2=O)cc1,–,–,–,–,17 µM,> 50 µM,33.9 µM,> 50 µM,19.4 µM,> 50 µM,44.3 µM,> 50 µM,10.6 µM,> 50 µM,5.93 µM,22.3 µM
CC[C@]1(O)C[C@@H]2CN(CCc3c([nH]c4ccccc34)[C@@](C(=O)OC)(c3cc4c(cc3OC)N(C)[C@H]3[C@@](O)(C(N)=O)[C@H](O)[C@]5(CC)[C@@H]6C[C@@H]6CN6CC[C@]43[C@@H]65)C2)C1,4.9 µM,32.1 µM,0.0382 µM,> 23.7 µM,< 0.00333 µM,0.00878 µM,< 0.00333 µM,> 33.3 µM,> 33.3 µM,> 33.3 µM,< 0.00333 µM,> 33.3 µM,0.0172 µM,> 33.3 µM,< 0.00333 µM,> 33.3 µM
C[C@]12CC[C@@H](OC(=O)N(CCCl)N=O)C[C@@H]1CC[C@@H]1[C@@H]2CC[C@]2(C)C(=O)CC[C@@H]12,18.1 µM,50.2 µM,14.6 µM,31.4 µM,1.6 µM,3.88 µM,3.43 µM,14.3 µM,3.99 µM,23.9 µM,11.5 µM,> 96 µM,3.75 µM,24 µM,0.526 µM,26 µM
CN1c2ccccc2S(=O)(=O)n2c(CCc3ccccc3)nnc21,–,–,–,> 100 µM,–,> 100 µM,–,> 100 µM,–,> 100 µM,–,> 100 µM,–,> 100 µM,–,> 100 µM
COc1ccc(/C=C\c2cc(OC)c(OC)c(OC)c2)c(NS(=O)(=O)c2ccc(Cl)cc2)c1O,–,–,24.9 µM,90.4 µM,1.74 µM,5.76 µM,0.229 µM,24.3 µM,14.2 µM,60.5 µM,0.153 µM,> 100 µM,0.379 µM,49.5 µM,0.807 µM,> 100 µM
COc1ccc(NC(=O)n2nc(/C=C\c3ccc(O)c(OC)c3)cc2/C=C\c2ccc(O)c(OC)c2)cc1,3.66 µM,38.6 µM,10.7 µM,78.6 µM,16.2 µM,44.3 µM,3.66 µM,27.5 µM,16.7 µM,64.8 µM,5.11 µM,> 100 µM,4.49 µM,57 µM,5.28 µM,86.7 µM
C/C=C(/C)c1cnc(CC(C)C)c(=O)[nH]1,–,–,–,–,–,> 100 µM,–,> 100 µM,–,> 100 µM,–,> 100 µM,–,> 100 µM,–,> 100 µM
COc1cc2c3c(ncc2c(OC)c1OC)-c1cc2c(cc1C3)OCO2,–,–,–,–,> 100 µM,> 100 µM,21.6 µM,61.4 µM,–,–,> 100 µM,> 100 µM,–,–,26.1 µM,55.6 µM
COc1nc(C)cc2c(=O)n(-c3ccccc3)n(CC(O)CN3CCN(c4ccc(Cl)cc4)CC3)c(=O)c12 (stereo unspecified),> 50 µM,> 50 µM,> 50 µM,> 50 µM,> 50 µM,> 50 µM,22.3 µM,> 50 µM,–,–,25.9 µM,> 50 µM,> 50 µM,> 50 µM,17.5 µM,> 50 µM
CCCCN(CCCC)CCc1c(C)cc(C)c(CCN(CCCC)CCCC)c1O,2.94 µM,11.3 µM,3.16 µM,37.8 µM,1.96 µM,4.14 µM,2.68 µM,8.53 µM,2.37 µM,7.44 µM,–,–,3.69 µM,35.6 µM,3.04 µM,> 100 µM
COC(=O)C(=O)C(C(=O)C(N)=O)c1nc2ccc(C(=O)c3ccccc3)cc2[nH]c1=O (stereo unspecified),–,> 100 µM,–,> 100 µM,–,–,–,> 100 µM,–,> 100 µM,–,> 100 µM,–,> 100 µM,–,–
CCOC(=O)Cc1csc(N=Nc2c(O)[nH]c3ccccc23)n1,–,–,–,> 100 µM,–,> 100 µM,–,> 100 µM,–,> 100 µM,–,> 100 µM,–,> 100 µM,–,> 100 µM
CC(=O)c1cccc(-c2cccc(-c3ccn(CCN4CCOCC4)n3)c2)c1,–,–,> 20 µM,> 20 µM,> 20 µM,> 20 µM,> 20 µM,> 20 µM,> 20 µM,> 20 µM,> 20 µM,> 20 µM,> 20 µM,> 20 µM,–,–
Cc1ccc2sc3ccc(N)cc3c(=O)c2c1,–,–,–,> 100 µM,–,> 100 µM,–,> 100 µM,–,> 100 µM,–,> 100 µM,–,> 100 µM,–,> 100 µM
COC(=O)[C@@]1(C)CCC[C@]2(C(=O)O)C3Cc4occc4[C@H](C)[C@@H]3CCC21 (stereo partly specified),–,> 100 µM,–,> 100 µM,–,–,–,> 100 µM,–,–,–,96.9 µM,–,> 100 µM,–,> 100 µM
